Measured values taken from patent US11819572B2, “Treatment of pain by administration of sustained-release liposomal anesthetic compositions” (Pacira Pharmaceuticals, Inc., priority 2020, dated 2023).

How the values were obtained:
Beagle dogs = test: Intravenous administration to Beagle dogs of bupivacaine and EXPAREL: adverse events and cardiology; format: in vivo, Beagle dog
Method: a) Intravenous (IV) Administration to Beagle Dogs of (a) Bupivacaine and (b) EXPAREL®:
Free bupivacaine was administered to dogs in an amount equivalent to 0.75 mg/kg and to 1.5 mg/kg of bupivacaine. Three dogs (one that was administered 0.75 mg/kg, and two that were administered 1.5 mg/kg) experienced side-effects such as convulsions, tremors, increased respiration and/or emesis (Table 1). In a separate experiment, EXPAREL® was administered to dogs in the same amount as above. […] A 3-fold higher dose of EXPAREL® (that is, a dose equivalent to 4.5 mg/kg of bupivacaine) was then administered to the dogs.

in vivo = details: beagle, dog, iv, 1.5 mg/kg
Method: Without wishing to be held to any particular mechanism or theory, it is believed that the observed toxicity differences above are attributable to the differences in plasma bupivacaine levels of the groups of dogs receiving free bupivacaine and EXPAREL®, respectively. […] Similarly, the Cmax for dogs receiving the same dose as in (i)—i.e., (1.5 mg/kg) of EXPAREL®—was clearly lower than that of dogs receiving free bupivacaine. […] The difference in exposure between the two groups may also be seen by comparing the respective values of Cmax/dose. […] In contrast with the above differences in Cmax in the two groups, the total AUC/dose was similar in dogs receiving EXPAREL® as compared to dogs receiving free bupivacaine. In particular, the values for female dogs were 751 (ng-hr/mL)/(mg/kg) for EXPAREL® (1.5 mg/kg dose), 674 (ng-hr/mL)/(mg/kg) for EXPAREL® (4.5 mg/kg dose), and 738 (ng-hr/mL)/(mg/kg)) for free bupivacaine. The values for male dogs were 1510 (ng-hr/mL)/(mg/kg) for EXPAREL® (1.5 mg/kg dose), 826 (ng-hr/mL)/(mg/kg) for EXPAREL® (4.5 mg/kg dose), and 879 (ng-hr/mL)/(mg/kg) for free bupivacaine.
(§1) The study was conducted in a manner analogous to the intravenous administration study described in a) above.

rats = test: Intravenous administration to rats of bupivacaine and EXPAREL: tolerability; format: in vivo
Method: The following is a summary of the results from two pre-clinical studies that compared the tolerability and PK profiles for non-liposomal bupivacaine vs EXPAREL®
Improved toleration was attributed to the reduced peak plasma levels of bupivacaine observed in animals following administration of EXPAREL® vs non-liposomal bupivacaine. 1) Intravenous (IV) Administration to Rats of (a) Bupivacaine and (b) EXPAREL®:
Free bupivacaine was administered to three rats in an amount equivalent to 1.0, 1.75 and 2.5 mg/kg of bupivacaine. Two rats died, corresponding to a 67% mortality rate. In a separate experiment, EXPAREL® was administered to rats in an amount equivalent to 2.5, 5.0 and 7.5 mg/kg of bupivacaine. […] The NOELs (no observable effect levels) determined for EXPAREL® and for free bupivacaine in this study were 7.5 mg/kg and 1.0 mg/kg, respectively.

[1] = Bupivacaine plasma pharmacokinetics after intra-arterial (IA) administration in Beagle dogs; format: in vivo; details: Beagle dog plasma bupivacaine, 0.1 mg/kg, Day 1, mean
Method: b) Intra-Arterial Administration to Beagle Dogs of (a) Bupivacaine and (b) EXPAREL®:
as §1

[2] = Beagle dogs, dose 0.75, 1.5 mg/kg (Group 2)
[3] = three rats, 1.0, 1.75 and 2.5 mg/kg of bupivacaine

**Q.** For `CCCCN1CCCCC1C(=O)Nc1c(C)cccc1C` (stereo not drawn) [free bupivacaine, bupivacaine], which “Dogs that experienced side-effects such as convulsions, tremors, increased respiration and/or emesis” value (Beagle dogs; 0.75 mg/kg) is on record?
**A.** The value was “one”.

**Q.** What about the “Dogs that experienced side-effects such as convulsions, tremors, increased respiration and/or emesis” value (Beagle dogs; 0.75 mg/kg and 1.5 mg/kg of bupivacaine (all)) of the same compound?
**A.** The value was “Three dogs”.

**Q.** And the “Dogs that experienced side-effects such as convulsions, tremors, increased respiration and/or emesis” value (Beagle dogs; 1.5 mg/kg)?
**A.** Its value is “two”.

**Q.** And the “Cardiology: Change in heart rate (BMP, avg)” value (Beagle dogs; [2])?
**A.** Its value is 56 ± 31 BMP.

**Q.** What about the “No. of animals exhibiting clinical symptoms: Increased respiration” value (Beagle dogs; [2]) of the same compound?
**A.** The value was 2.

**Q.** And the “No. of animals exhibiting clinical symptoms: Sustained convulsions” value (Beagle dogs; [2])?
**A.** The value was 1.

**Q.** What about the “No. of animals exhibiting clinical symptoms: Tremors” value (Beagle dogs; [2]) of the same compound?
**A.** Its value is 1.

**Q.** And the “No. of animals exhibiting clinical symptoms: Unsustained convulsions” value (Beagle dogs; [2])?
**A.** Its value is 0.

**Q.** What about the “No. of animals exhibiting clinical symptoms: Vomiting” value (Beagle dogs; [2]) of the same compound?
**A.** The value was 2.

**Q.** And the AUC(0-t) (in vivo; female)?
**A.** Its AUC(0-t) is 1110 ng·h/mL.

**Q.** What about the “AUC(0 − t)/D” value (in vivo; female) of the same compound?
**A.** The value was 738 ng·h/mL/mg/kg.

**Q.** What about the Cmax (in vivo; female) of the same compound?
**A.** Its Cmax is 2050 ng/mL.

**Q.** And the Cmax/D (in vivo; female)?
**A.** Its Cmax/D is 1370 ng·kg/mL/mg.

**Q.** And the Cmax/dose (in vivo; female)?
**A.** The Cmax/dose was 1.37.

**Q.** And the half-life (in vivo; female)?
**A.** The half-life was 28.4 min.

**Q.** What about the “total AUC/dose” value (in vivo; female) of the same compound?
**A.** The value was 738 (ng-hr/mL)/(mg/kg).

**Q.** And the AUC(0-t) (in vivo; male)?
**A.** Its AUC(0-t) is 1320 ng·h/mL.

**Q.** And the “AUC(0 − t)/D” value (in vivo; male)?
**A.** The value was 879 ng·h/mL/mg/kg.

**Q.** What about the Cmax (in vivo; male) of the same compound?
**A.** The Cmax was 2750 ng/mL.

**Q.** What about the Cmax/D (in vivo; male) of the same compound?
**A.** Its Cmax/D is 1830 ng·kg/mL/mg.

**Q.** And the Cmax/dose (in vivo; male)?
**A.** The Cmax/dose was 1.83.

**Q.** What about the half-life (in vivo; male) of the same compound?
**A.** Its half-life is 31.2 min.

**Q.** And the “total AUC/dose” value (in vivo; male)?
**A.** The value was 879 (ng-hr/mL)/(mg/kg).

**Q.** What about the “NOEL (no observable effect level)” value (rats; rats) of the same compound?
**A.** The value was 1.0 mg/kg.

**Q.** What about the Mortality rate (rats; [3]) of the same compound?
**A.** The Mortality rate was 67%.

**Q.** What about the Rats that died (rats; [3]) of the same compound?
**A.** The Rats that died was “Two rats died”.

**Q.** And the AUC(0-t) ([1]; Female)?
**A.** The AUC(0-t) was 62.6 ng·h/mL.

**Q.** And the “AUC(0 − t)/D” value ([1]; Female)?
**A.** Its value is 626 ng·h/mL/mg/kg.

**Q.** And the Cmax ([1]; Female)?
**A.** The Cmax was 187 ng/mL.

**Q.** And the Cmax/D ([1]; Female)?
**A.** Its Cmax/D is 1870 ng·kg/mL/mg.

**Q.** And the half-life ([1]; Female)?
**A.** The half-life was 16 min.

**Q.** And the AUC(0-t) ([1]; Male)?
**A.** Its AUC(0-t) is 71.1 ng·h/mL.

**Q.** What about the “AUC(0 − t)/D” value ([1]; Male) of the same compound?
**A.** Its value is 711 ng·h/mL/mg/kg.

**Q.** And the Cmax ([1]; Male)?
**A.** The Cmax was 205 ng/mL.

**Q.** What about the Cmax/D ([1]; Male) of the same compound?
**A.** The Cmax/D was 2050 ng·kg/mL/mg.

**Q.** What about the half-life ([1]; Male) of the same compound?
**A.** The half-life was 15.8 min.
